According to ChEMBL document CHEMBL1201862, “PubChem BioAssay data set” (2004):
The source made the active and inactive calls.

Tests used:
[1] = fluconazole-exposed Candida albicans growth modulators – fluorescence, retest, confirmation (AID 2467); assay type: functional, cell-based
[2] = biological target: T1, Mannose-6-phosphate isomerase (Homo sapiens, UniProt P34949); test: MPI inhibition at elevated mannose 6-phosphate – biochemical, fluorescence intensity, high mannose 6-phosphate, primary screen (AID 1220)
T1 sequence (P34949 whole entry): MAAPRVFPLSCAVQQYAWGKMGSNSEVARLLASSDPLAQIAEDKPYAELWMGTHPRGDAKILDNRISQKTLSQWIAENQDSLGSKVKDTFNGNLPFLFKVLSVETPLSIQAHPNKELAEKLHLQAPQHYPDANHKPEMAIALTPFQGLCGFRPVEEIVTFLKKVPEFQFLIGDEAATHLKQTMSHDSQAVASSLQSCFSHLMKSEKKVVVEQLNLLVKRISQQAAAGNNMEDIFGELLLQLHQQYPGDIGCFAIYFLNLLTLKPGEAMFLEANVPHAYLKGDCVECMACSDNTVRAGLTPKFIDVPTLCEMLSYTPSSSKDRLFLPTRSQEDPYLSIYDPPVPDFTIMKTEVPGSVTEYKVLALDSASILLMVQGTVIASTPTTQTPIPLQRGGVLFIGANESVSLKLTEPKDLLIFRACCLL

[3] = biological target: T2, Protein RecA (Mycobacterium tuberculosis, UniProt P9WHJ3); test: Fluorescence Cell-Free Homogeneous Dose Retest to Identify Inhibitors of RecA-Intein Splicing Activity. [Related pubchem assays (depositor defined):AID2097, AID2223, AID489010, AID492950]; assay type: functional
T2 sequence (P9WHJ3 whole entry): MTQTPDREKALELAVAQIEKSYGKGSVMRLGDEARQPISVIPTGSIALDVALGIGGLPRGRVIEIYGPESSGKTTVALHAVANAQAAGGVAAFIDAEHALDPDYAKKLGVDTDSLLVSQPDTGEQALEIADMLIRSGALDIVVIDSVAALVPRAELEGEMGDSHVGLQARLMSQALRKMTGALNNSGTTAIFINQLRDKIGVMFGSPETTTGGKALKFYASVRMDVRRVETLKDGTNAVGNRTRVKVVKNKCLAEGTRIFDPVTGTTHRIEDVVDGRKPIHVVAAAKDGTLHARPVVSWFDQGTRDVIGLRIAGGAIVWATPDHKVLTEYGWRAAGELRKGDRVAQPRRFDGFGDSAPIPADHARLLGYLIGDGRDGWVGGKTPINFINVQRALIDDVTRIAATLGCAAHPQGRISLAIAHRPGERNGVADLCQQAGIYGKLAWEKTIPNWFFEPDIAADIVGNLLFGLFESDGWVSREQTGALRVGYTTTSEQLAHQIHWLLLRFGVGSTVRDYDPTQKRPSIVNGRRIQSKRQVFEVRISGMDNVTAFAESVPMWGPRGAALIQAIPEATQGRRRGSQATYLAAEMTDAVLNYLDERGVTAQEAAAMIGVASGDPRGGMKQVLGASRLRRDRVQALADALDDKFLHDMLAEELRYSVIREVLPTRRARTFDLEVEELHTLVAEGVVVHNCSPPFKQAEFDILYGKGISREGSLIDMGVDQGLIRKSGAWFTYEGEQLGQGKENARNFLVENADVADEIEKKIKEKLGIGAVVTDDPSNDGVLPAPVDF

[4] = biological target: Peroxisome proliferator-activated receptor gamma/Nuclear receptor coactivator 3 (Homo sapiens, UniProt P37231); test: TR-FRET dose response biochemical High Throughput Screening assay for agonists of the steroid receptor coactivator 3 (SRC-3) recruitment by the peroxisome proliferator-activated receptor gamma (PPAR gamma): non-selective agonists. [Related pubchem assays: 1301 (Confirmation screen.), 1048 (Primary screen.)]; assay type: functional
[5] = biological target: ATP-dependent molecular chaperone HSP82 (Candida albicans (strain WO-1) (Yeast), UniProt C4YTQ8); test: steroid-induced GRE reporter decrease in yeast – S. cerevisiae, luminescence, Hsp90 inhibitor project, dose response (AID 2400); assay type: functional, cell-based;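 further: beta-galactosidase luminescence from glucocorticoid response element reporter as proxy for Hsp90 function; inhibitor potency where signal loss means Hsp90 inhibition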
[6] = biological target: Peroxisome proliferator-activated receptor gamma/Nuclear receptor coactivator 2 (Homo sapiens, UniProt P37231); test: (§1) TR-FRET dose response biochemical High Throughput Screening assay for agonists of the steroid receptor coactivator 2 (SRC-2) recruitment by the peroxisome proliferator-activated receptor gamma (PPAR gamma): non-selective agonists. [Related pubchem assays: 1297, 1032 ]; assay type: functional
Chain of Peroxisome proliferator-activated receptor gamma/Nuclear receptor coactivator 2 (P37231 whole entry): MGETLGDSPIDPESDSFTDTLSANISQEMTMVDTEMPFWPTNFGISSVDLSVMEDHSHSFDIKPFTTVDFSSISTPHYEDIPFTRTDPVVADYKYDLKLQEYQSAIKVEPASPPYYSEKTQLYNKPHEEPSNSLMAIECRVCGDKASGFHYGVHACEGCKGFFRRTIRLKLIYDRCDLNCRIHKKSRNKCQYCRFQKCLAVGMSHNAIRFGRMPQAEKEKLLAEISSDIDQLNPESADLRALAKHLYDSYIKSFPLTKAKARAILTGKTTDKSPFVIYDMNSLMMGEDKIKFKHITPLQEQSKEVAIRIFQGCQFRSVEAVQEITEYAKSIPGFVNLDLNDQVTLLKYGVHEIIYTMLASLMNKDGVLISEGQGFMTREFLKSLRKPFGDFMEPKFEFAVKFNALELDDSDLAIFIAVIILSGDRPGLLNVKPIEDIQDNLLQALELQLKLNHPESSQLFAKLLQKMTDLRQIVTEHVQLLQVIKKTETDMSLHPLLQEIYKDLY
Chain of Peroxisome proliferator-activated receptor gamma/Nuclear receptor coactivator 2 (Q15596 whole entry, further chain): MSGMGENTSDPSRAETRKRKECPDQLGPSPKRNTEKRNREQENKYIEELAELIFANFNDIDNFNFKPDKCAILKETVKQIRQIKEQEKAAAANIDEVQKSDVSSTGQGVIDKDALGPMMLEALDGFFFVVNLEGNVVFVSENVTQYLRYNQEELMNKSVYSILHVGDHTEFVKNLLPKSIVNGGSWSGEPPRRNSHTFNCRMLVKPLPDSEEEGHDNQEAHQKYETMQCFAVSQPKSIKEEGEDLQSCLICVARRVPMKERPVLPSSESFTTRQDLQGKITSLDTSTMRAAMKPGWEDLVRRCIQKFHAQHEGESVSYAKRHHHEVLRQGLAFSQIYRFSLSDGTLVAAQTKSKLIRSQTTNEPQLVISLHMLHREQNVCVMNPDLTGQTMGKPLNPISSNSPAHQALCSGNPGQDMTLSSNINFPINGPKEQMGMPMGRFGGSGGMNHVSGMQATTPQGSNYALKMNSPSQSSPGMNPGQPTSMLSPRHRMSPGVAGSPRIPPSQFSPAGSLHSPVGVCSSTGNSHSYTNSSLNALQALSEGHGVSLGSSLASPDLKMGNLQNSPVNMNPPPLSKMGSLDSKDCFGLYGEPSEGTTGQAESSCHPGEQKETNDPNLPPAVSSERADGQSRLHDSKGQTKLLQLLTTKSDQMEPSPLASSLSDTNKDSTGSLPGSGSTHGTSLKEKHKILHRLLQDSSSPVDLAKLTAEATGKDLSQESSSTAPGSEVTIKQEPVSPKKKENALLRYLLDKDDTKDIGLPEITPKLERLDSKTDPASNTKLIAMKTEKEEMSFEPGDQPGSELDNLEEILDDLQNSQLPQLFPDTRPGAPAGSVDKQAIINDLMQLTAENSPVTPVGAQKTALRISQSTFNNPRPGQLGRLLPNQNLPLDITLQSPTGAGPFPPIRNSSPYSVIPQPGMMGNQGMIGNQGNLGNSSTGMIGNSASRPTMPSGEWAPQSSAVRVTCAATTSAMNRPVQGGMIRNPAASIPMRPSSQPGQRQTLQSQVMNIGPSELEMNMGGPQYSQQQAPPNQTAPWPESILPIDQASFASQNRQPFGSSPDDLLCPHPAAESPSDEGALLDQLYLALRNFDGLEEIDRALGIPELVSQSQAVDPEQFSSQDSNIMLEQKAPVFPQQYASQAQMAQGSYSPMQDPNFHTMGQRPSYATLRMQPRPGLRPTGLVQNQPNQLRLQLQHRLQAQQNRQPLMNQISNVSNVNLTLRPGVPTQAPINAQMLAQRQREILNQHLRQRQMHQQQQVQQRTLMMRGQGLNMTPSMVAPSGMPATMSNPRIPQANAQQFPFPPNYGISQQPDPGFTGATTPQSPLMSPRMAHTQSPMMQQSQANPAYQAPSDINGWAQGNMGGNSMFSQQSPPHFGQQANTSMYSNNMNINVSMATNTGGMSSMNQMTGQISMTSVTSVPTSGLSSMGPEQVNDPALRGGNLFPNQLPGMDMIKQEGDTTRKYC

[7] = viability of HCT116 lacking mutant beta-catenin – cell-based, human colon tumor, dose response (AID 1045); assay type: functional;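 further: HCT116 colon tumor cells with beta catenin knocked out; cells exposed to compound for 60 hours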
[8] = biological target: Peroxisome proliferator-activated receptor gamma/Nuclear receptor coactivator 1 (Homo sapiens, UniProt P37231); test: as §1, with “1 (SRC-1)” for “2 (SRC-2)”, “assays (depositor defined):AID1300, AID1808, AID504735, AID631]” for “assays: 1297, 1032 ]”; assay type: protein assay
Chain of Peroxisome proliferator-activated receptor gamma/Nuclear receptor coactivator 1 (P37231 whole entry): as the sequence (P37231 whole entry) above
Chain of Peroxisome proliferator-activated receptor gamma/Nuclear receptor coactivator 1 (Q15788 whole entry, further chain): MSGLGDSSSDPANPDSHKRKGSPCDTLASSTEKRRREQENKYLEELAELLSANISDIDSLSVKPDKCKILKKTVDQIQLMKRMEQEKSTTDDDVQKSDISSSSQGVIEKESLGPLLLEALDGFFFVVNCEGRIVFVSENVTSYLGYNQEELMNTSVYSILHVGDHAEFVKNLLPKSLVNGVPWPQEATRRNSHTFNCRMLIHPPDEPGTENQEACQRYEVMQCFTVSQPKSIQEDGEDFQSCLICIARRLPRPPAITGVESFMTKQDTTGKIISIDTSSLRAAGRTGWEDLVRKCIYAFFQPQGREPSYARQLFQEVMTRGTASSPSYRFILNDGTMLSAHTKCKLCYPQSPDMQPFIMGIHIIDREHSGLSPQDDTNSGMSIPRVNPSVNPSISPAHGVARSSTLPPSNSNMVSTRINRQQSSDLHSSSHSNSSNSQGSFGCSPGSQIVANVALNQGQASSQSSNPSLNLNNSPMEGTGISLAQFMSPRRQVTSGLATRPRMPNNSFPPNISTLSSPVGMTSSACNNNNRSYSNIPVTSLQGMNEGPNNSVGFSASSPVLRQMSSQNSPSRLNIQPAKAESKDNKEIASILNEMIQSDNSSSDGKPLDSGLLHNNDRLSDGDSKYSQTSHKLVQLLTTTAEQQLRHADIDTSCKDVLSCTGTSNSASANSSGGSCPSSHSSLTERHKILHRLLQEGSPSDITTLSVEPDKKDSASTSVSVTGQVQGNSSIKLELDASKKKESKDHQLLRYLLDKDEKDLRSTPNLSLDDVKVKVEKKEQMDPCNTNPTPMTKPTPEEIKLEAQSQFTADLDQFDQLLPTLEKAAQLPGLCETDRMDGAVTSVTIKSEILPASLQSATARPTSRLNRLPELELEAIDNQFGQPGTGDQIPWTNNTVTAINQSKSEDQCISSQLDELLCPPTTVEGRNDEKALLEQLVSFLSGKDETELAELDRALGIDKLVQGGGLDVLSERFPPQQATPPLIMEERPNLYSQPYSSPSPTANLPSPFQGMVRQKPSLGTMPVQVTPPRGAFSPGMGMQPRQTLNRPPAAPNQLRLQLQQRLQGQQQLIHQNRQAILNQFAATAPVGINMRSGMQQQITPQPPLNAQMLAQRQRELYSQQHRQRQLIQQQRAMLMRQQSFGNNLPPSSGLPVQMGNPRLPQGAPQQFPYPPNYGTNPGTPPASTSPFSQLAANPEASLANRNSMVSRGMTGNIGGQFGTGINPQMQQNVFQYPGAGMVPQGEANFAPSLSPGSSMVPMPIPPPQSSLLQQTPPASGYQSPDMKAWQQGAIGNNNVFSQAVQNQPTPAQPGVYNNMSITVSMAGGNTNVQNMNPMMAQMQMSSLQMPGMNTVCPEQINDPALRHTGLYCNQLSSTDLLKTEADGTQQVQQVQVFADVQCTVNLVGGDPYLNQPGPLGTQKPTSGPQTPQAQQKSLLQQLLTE

[9] = tested on: Vero; test: viability of Vero cells under compound – cytotoxicity control for flavivirus capping enzyme inhibitors (AID 588742); assay type: functional; conditions: Chlorocebus sabaeus
[10] = Luminescent dose response cell-based high throughput screening assay for inhibitors of the Janus kinase 2 mutant JAK2V617F. [Related pubchem assays: 1446 (Primary screen.), 1521 (Confirmation assay.), 1486 (Counter screen.)]; assay type: functional
[11] = NIH-3T3 fibroblast cytotoxicity, dose response, cytotoxicity control, cell-based, fluorescence, Alamar Blue, secondary assay (AID 2327); assay type: functional;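 further: NIH-3T3 mouse fibroblasts cultured with fluconazole at 8 µg/mL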
[12] = biological target: T3, Replicative DNA helicase DnaB (Mycobacterium tuberculosis, UniProt P9WMR3); test: DnaB intein splicing inhibitors, dose response, biochemical, cell-free fluorescence (AID 449749); assay type: functional
T3 sequence (P9WMR3 whole entry): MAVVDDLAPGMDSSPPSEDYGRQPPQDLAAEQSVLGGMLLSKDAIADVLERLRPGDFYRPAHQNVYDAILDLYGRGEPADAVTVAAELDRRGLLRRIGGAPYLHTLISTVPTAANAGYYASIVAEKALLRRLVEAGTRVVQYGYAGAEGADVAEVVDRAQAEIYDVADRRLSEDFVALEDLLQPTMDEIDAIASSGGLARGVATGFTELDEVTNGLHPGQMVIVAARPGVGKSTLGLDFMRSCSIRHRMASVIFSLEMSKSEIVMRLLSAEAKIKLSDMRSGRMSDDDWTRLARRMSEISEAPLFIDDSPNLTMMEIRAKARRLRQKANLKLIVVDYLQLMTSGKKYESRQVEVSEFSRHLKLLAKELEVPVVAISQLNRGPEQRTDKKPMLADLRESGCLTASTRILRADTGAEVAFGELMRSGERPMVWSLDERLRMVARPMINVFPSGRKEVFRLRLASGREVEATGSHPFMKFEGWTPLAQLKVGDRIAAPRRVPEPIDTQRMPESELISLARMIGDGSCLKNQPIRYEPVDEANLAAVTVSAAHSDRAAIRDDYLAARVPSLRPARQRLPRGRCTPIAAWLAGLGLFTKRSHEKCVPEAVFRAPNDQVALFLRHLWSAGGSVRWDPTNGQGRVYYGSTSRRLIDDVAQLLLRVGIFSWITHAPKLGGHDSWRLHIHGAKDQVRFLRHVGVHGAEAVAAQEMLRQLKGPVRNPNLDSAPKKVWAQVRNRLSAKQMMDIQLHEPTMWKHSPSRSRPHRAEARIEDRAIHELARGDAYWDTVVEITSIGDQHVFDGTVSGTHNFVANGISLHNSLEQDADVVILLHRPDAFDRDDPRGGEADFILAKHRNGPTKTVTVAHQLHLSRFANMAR

[13] = tested on: INS1; test: INS-1E survival protection against cytokine death – cell-based, luminescence, retest, dose response (AID 449756); assay type: functional; conditions: Rattus norvegicus;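 further: cell death triggered by IL-1 beta plus TNF-alpha plus IFN-gamma mixture; protective hits raise ATP signal compared with cytokine alone wells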
[14] = biological target: T4, Serine/threonine-protein phosphatase (Candida dubliniensis (strain CD36 / CBS 7987 / NCPF 3949 / NRRLY-17841) (Yeast), UniProt B9W6M3); test: blockers of CaCl2-induced CDRE-lacZ signaling – S. cerevisiae, luminescence, secondary, dose response (AID 2388); assay type: functional, cell-based;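 further: yeast reporter cells carrying a calcineurin-responsive lacZ construct stimulated with calcium chloride; luminescent beta-galactosidase reporter signal in whole cells rather than isolated phosphatase activity; potency for inhibition where a drop in reporter signal means calcineurin blockade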
T4 sequence (B9W6M3 whole entry): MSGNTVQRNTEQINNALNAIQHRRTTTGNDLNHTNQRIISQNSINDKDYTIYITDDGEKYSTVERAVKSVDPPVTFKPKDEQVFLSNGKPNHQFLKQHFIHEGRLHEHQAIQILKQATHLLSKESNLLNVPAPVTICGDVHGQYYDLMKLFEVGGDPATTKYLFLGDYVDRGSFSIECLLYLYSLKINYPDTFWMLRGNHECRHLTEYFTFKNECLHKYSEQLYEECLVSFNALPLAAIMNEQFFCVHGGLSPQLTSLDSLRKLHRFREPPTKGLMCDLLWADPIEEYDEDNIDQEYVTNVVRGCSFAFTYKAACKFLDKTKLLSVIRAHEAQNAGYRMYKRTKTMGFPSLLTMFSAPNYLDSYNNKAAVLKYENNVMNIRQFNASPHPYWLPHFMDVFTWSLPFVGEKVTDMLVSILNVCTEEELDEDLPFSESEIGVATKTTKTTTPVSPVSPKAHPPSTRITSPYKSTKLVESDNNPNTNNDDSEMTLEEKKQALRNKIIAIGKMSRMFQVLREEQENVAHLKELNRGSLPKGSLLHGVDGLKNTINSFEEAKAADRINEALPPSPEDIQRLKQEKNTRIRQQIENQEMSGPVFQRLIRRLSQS

[15] = viability of PTEN-deleted HCT116 cells – cell-based, HCT116 PTEN knockout, dose response (AID 1047); assay type: functional;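 further: HCT116 colon tumor cells with PTEN knocked out; cells exposed to compound for 60 hours before readout; potency for loss of cell viability measured by luminescence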
[16] = biological target: DNA topoisomerase (Yersinia pestis, UniProt A0A2S9PM60); test: Yersinia topoisomerase I cleavage product accumulation – biochemical, cherry-pick, dose response (AID 588525)
Chain of DNA topoisomerase (A0A2S9PM60 whole entry): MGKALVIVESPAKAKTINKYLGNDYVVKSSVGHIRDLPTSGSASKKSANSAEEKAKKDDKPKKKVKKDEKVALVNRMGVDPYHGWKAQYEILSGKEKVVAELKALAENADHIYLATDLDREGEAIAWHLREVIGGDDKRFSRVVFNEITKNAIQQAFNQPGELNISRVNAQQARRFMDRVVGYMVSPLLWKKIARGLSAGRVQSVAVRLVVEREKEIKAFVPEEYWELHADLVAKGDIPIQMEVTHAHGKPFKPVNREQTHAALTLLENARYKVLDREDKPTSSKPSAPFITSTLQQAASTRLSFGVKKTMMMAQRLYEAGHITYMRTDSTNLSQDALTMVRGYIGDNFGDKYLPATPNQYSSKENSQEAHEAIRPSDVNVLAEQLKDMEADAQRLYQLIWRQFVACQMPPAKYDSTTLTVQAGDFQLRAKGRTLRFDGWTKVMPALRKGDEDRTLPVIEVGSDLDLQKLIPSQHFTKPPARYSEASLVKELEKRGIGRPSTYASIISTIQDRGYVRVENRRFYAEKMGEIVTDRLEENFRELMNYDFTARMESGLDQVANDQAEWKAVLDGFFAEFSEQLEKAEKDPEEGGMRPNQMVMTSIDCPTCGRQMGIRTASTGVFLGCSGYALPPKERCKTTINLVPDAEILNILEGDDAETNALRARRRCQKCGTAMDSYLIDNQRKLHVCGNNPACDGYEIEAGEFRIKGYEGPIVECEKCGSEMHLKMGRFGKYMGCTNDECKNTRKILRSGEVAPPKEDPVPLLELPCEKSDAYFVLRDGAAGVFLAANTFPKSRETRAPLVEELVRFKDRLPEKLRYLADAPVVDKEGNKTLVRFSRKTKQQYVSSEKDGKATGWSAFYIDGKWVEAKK

[O-][N+]1=c2ccc(Nc3ccccc3)cc2=NC12CCCCC2
> 79.4 µM (not active): EC50 [4]
14.4 µM (not active): EC50 [6]
inactive: EC50 [5] > 150 µM | EC50 [8] 14.9 µM | AC50 [12] > 380 µM | EC50 [14] > 180 µM
active: EC50 [1] 1.46 µM | IC50 [2] 48.2 µM | EC50 [3] 4.37 µM | EC50 [7] 1.62 µM | CC50 [9] 18.6 µM | IC50 [10] 0.637 µM | EC50 [11] 146 µM | AC50 [13] 5.64 µM | EC50 [15] 1.9 µM

Cc1cc(OCCn2nc(C(=O)O)c3ccccc3c2=O)ccc1C(C)C
active: AC50 [16] 3.68 µM
